# Data taken from article PMC8482815, “Targeting Host Glycolysis as a Strategy for Antimalarial Development” (Frontiers in Cellular and Infection Microbiology, 2021).
# Several values for one entry are separate records, joined by “and”; a condition that tells them apart may be missing. Equal values may be shown once.
# Tested on: human erythrocytes
# Experiment: Untargeted metabolomics and 13C-glucose tracing of enolase inhibitor treated erythrocytes
# Format: cell-based
# Conditions: 6h
# Procedure: Freshly collected erythrocytes were washed, resuspended to 10% hematocrit in buffer [25mM HEPES (pH 7.4), 120mM NaCl, 5.4mM KCl, 1.8mM CaCl2, and 1mM NaH2PO4], incubated for 1 hour at 37°C, then centrifuged at 2000xg for 5 minutes at 4°C, resuspended in fresh wash buffer to 30-40% hematocrit, and split into 210µL aliquots of packed erythrocytes. […] All samples were incubated at 37°C shaking at 500 RPM. Triplicate samples of supernatants and packed erythrocytes were collected at 0, 0.5, 1, and 6-hour intervals and snap-frozen in liquid N2.
# RBC and media samples were extracted at 1:10 and 1:20 dilutions, respectively, in 5:3:2 MeOH : MeCN:H2O v/v/v, and supernatants analyzed on a Thermo Vanquish UHPLC coupled to a Thermo Q Exactive mass spectrometer, as extensively described ([Nemkov et al., 2015]; [Nemkov et al., 2017]). The extraction buffer was supplemented with 40uM 3-^13C lactate to allow absolute quantification of lactate isotopologues, including lactate generated via glycolysis ([1,2,3-^13C3] enriched) vs. the pentose phosphate pathway ([2,3-^13C2] enriched), as described ([Reisz et al., 2016]). Metabolite assignments, peak area integration and isotopologues distributions were determined using Maven (Princeton University) ([Nemkov et al., 2015]; [Nemkov et al., 2017]).
# Data were auto-scaled and normalized to zero-hour time points. Metabolites were removed from the dataset if greater than 50% of the samples contained missing values or the relative standard deviation among replicates exceeded 25%. Additionally, data was filtered using the interquartile range to reduce near-constant values from the experiment by 5%.
# A principal component analysis of preprocessed data was plotted with the 95% confidence interval minimum volume enclosing ellipsoid for each respective group (MetaboAnalyst, cluster, plotly). A two-way repeated measures analysis of variance (ANOVA) was performed with multiple comparisons corrected for using a false discovery rate p-value cutoff of 0.05. Metabolite-Pathway analysis was performed using the R package of MetaboAnalyst, as previously described ([Xia and Wishart, 2010]). Metabolite-Protein nodal analysis was performed using omicsnet.ca and as previously described ([Zhou and Xia, 2018]).
# [1] = treated erythrocytes, one value per replicate sample, polarity +
# [2] = treated erythrocytes, one value per replicate sample, polarity -
# [3] = treated erythrocytes, replicate samples
structure (smiles),measurement,setting,value
CC(C)(C)C(=O)OCOP(=O)(OCOC(=O)C(C)(C)C)C1CCCN(O)C1=O (stereo not shown) [POMHEX],AMP level (metabolomics signal),replicate samples,3.72E+05 and 4.97E+05 and 4.88E+05
same,ATP level (metabolomics signal),replicate samples,1.06E+05 and 4.51E+04 and 2.86E+04
same,Adenine level (metabolomics signal),replicate samples,1.10E+05 and 1.13E+05 and 1.03E+05
same,Cytosine level (metabolomics signal),replicate samples,0.00E+00
same,L-alanine level (metabolomics signal),replicate samples,7.74E+06 and 6.77E+06 and 7.99E+06
same,L-arginine level (metabolomics signal),replicate samples,4.96E+06 and 6.71E+06 and 3.72E+06
same,L-asparagine level (metabolomics signal),replicate samples,5.50E+06 and 5.88E+06 and 6.25E+06
same,L-aspartate level (metabolomics signal),replicate samples,1.08E+07 and 1.19E+07 and 1.12E+07
same,L-cysteine level (metabolomics signal),replicate samples,4.98E+05 and 5.97E+05 and 1.05E+06
same,L-glutamate level (metabolomics signal),replicate samples,5.99E+06 and 6.14E+06 and 6.66E+06
same,L-glutamine level (metabolomics signal),replicate samples,6.37E+07 and 6.26E+07 and 6.35E+07
same,L-histidine level (metabolomics signal),replicate samples,1.60E+06 and 1.47E+06 and 1.87E+06
same,L-isoleucine level (metabolomics signal),replicate samples,1.28E+07 and 1.42E+07 and 1.14E+07
same,L-leucine level (metabolomics signal),replicate samples,1.47E+08 (2×) and 1.27E+08
same,L-lysine level (metabolomics signal),replicate samples,1.47E+06 and 1.24E+06 and 1.45E+06
same,L-methionine level (metabolomics signal),replicate samples,1.56E+07 and 1.66E+07 and 1.27E+07
same,L-phenylalanine level (metabolomics signal),replicate samples,7.06E+06 and 6.50E+06 and 4.97E+06
same,L-proline level (metabolomics signal),replicate samples,6.39E+07 and 5.46E+07 and 5.96E+07
same,L-serine level (metabolomics signal),replicate samples,4.50E+06 and 4.60E+06 and 4.86E+06
same,L-threonine level (metabolomics signal),replicate samples,8.82E+06 and 8.15E+06 and 8.77E+06
same,L-tryptophan level (metabolomics signal),replicate samples,1.85E+06 and 1.63E+06 and 1.27E+06
same,L-tyrosine level (metabolomics signal),replicate samples,2.13E+07 and 2.30E+07 and 1.69E+07
same,L-valine level (metabolomics signal),replicate samples,1.59E+08 and 1.62E+08 and 1.47E+08
same,dCMP level (metabolomics signal),replicate samples,1.62E+04 and 1.66E+04 and 1.35E+04
same,dTMP level (metabolomics signal),replicate samples,1.10E+06 and 1.20E+06 and 9.63E+05
same,glycine level (metabolomics signal),replicate samples,1.51E+06 and 1.66E+06 and 1.67E+06
same,N-Acyl-D-aspartate (C06380) metabolite signal,[1],6.16E+04 and 5.50E+04 and 5.26E+04
same,Poly-gamma-D-glutamate (C05723) metabolite signal,[1],4.45E+07 and 4.25E+07 and 4.46E+07
same,D-Ribitol 5-phosphate (C01068) metabolite signal,[2],1.15E+04 and 2.30E+04 and 2.25E+04
same,"D-glucono-1,5-lactone (C00198) metabolite signal",[2],2.58E+05 and 2.64E+05 and 3.28E+05
same,L-Noradrenaline (C00547) metabolite signal,[2],2.02E+04 and 2.76E+04 and 1.70E+04
same,Oxalosuccinate (C05379) metabolite signal,[2],8.49E+04 and 8.94E+04 and 8.00E+04
same,Pyridoxamine (C00534) metabolite signal,[2],9.67E+03 and 8.58E+03 and 9.61E+03
same,Thioredoxin disulfide (C00343) metabolite signal,[2],2.29E+04 and 2.69E+04 and 2.77E+04
same,1-4-beta-D-Xylan (metabolite signal),[3],1.64E+05 and 1.40E+05 and 1.93E+05
same,2-Hydroxyglutarate/Citramalate (C02630) metabolite signal,[3],7.84E+04 and 5.75E+04 and 5.66E+04
same,5-6-Dihydrothymine (C00906) metabolite signal,[3],2.80E+05 and 2.87E+05 and 2.28E+05
same,5-10-Methenyltetrahydrofolate (metabolite signal),[3],1.54E+05 and 1.37E+05 and 1.05E+05
same,5-Hydroxyisourate (C11821) metabolite signal,[3],4.81E+06 and 4.49E+06 and 3.27E+06
same,5-L-Glutamyl-taurine (metabolite signal),[3],1.49E+05 and 1.28E+05 and 1.35E+05
same,5-Oxoproline (metabolite signal),[3],8.83E+05 and 1.09E+06 and 7.57E+05
same,(S)(+)-Allantoin (C02350) metabolite signal,[3],7.40E+03 and 8.26E+03 and 9.04E+03
same,Allantoate (C00499) metabolite signal,[3],5.78E+05 and 5.92E+05 and 8.52E+05
same,Ascorbate (metabolite signal),[3],7.64E+04 and 9.21E+04 and 9.25E+04
same,CMP-N-acetylneuraminate (metabolite signal),[3],2.55E+04 and 6.91E+03 and 6.08E+03
same,Carnosine (metabolite signal),[3],1.46E+05 and 1.52E+05 and 1.15E+05
same,Citrate (C00158) metabolite signal,[3],2.76E+04 and 1.91E+04 and 1.57E+04
same,Creatine (metabolite signal),[3],1.37E+08 and 1.42E+08 and 1.27E+08
same,Creatinine (metabolite signal),[3],2.18E+06 and 2.32E+06 and 1.85E+06
same,Cys-Gly (metabolite signal),[3],7.81E+05 and 5.57E+05 and 7.70E+05
same,D-Glucosamine (metabolite signal),[3],3.33E+05 and 2.53E+05 and 2.71E+05
same,D-Glucose (C00031) metabolite signal,[3],3.99E+06 and 4.57E+06 and 4.90E+06
same,D-Ribose (C00121) metabolite signal,[3],1.11E+05 and 8.97E+04 and 8.43E+04
same,Dehydroascorbate (metabolite signal),[3],3.57E+04 and 4.39E+04 and 4.65E+04
same,Dihydrofolate (metabolite signal),[3],1.44E+06 and 1.74E+06 and 1.87E+06
same,Dimethylglycine (metabolite signal),[3],6.87E+05 and 6.86E+05 and 5.98E+05
same,Diphosphate (C00013) metabolite signal,[3],2.84E+04 and 3.52E+04 and 3.86E+04
same,Fumarate (C00122) metabolite signal,[3],9.00E+04 and 7.84E+04 and 7.19E+04
same,Glutathione (C00051) metabolite signal,[3],4.59E+07 and 3.87E+07 and 4.33E+07
same,Glutathione disulfide (metabolite signal),[3],3.00E+05 and 9.38E+04 and 7.81E+04
same,Hypoxanthine (C00262) metabolite signal,[3],7.14E+03 and 5.93E+03 and 0.00E+00
same,IMP (C00130) metabolite signal,[3],4.51E+04 and 3.74E+04 and 4.61E+04
same,Inosine (C00294) metabolite signal,[3],6.84E+04 and 6.73E+04 and 4.20E+04
same,L-Citrulline (metabolite signal),[3],2.71E+06 and 3.04E+06 and 2.48E+06
same,L-Homoserine (metabolite signal),[3],2.62E+05 and 3.31E+05 and 2.39E+05
same,Lactate (C01432) metabolite signal,[3],1.75E+07 and 2.07E+07 and 1.43E+07
same,Malate (C00149) metabolite signal,[3],1.61E+05 and 9.39E+04 and 7.61E+04
same,Mannitol (C00392) metabolite signal,[3],1.83E+05 and 1.22E+05 and 1.51E+05
same,N-Acetylneuraminate (metabolite signal),[3],1.66E+04 and 1.46E+04 and 8.13E+03
same,N-Glycoloyl-neuraminate (metabolite signal),[3],7.64E+04 and 8.68E+04 and 1.14E+05
same,NAD+ (C00003) metabolite signal,[3],5.29E+04 and 5.95E+04 and 9.85E+04
same,Nicotinamide (C00153) metabolite signal,[3],2.02E+07 and 2.16E+07 and 1.82E+07
same,Ornithine (metabolite signal),[3],1.75E+06 and 1.63E+06 and 1.64E+06
same,Oxaloacetate (C00036) metabolite signal,[3],3.72E+04 and 4.43E+04 and 3.47E+04
same,Phosphoserine (metabolite signal),[3],2.32E+04 and 2.57E+04 and 1.04E+04
same,Putrescine (metabolite signal),[3],4.24E+04 and 2.70E+04 and 3.11E+04
same,Pyridoxal (C00250) metabolite signal,[3],4.26E+04 and 5.24E+04 and 7.64E+04
same,Pyruvate (C00022) metabolite signal,[3],2.17E+06 (2×) and 1.35E+06
same,S-Glutathionyl-L-cysteine (metabolite signal),[3],2.24E+05 and 8.00E+04 and 6.92E+04
same,Sedoheptulose 1-phosphate (C06222) metabolite signal,[3],2.39E+04 and 1.32E+04 and 9.55E+03
same,Spermidine (metabolite signal),[3],6.66E+06 and 5.53E+06 and 5.68E+06
same,Spermine (metabolite signal),[3],8.48E+06 and 7.61E+06 and 6.89E+06
same,Succinate (C00042) metabolite signal,[3],3.87E+04 and 5.97E+04 and 7.05E+04
same,Thymidine (C00214) metabolite signal,[3],1.24E+04 and 9.43E+03 and 3.23E+03
same,UDP (C00015) metabolite signal,[3],8.83E+04 and 9.94E+04 and 8.18E+04
same,UDP-N-acetyl-D-glucosamine (metabolite signal),[3],8.06E+03 and 2.61E+03 and 5.41E+03
same,UDP-glucose (C00029) metabolite signal,[3],9.76E+03 and 1.91E+03 and 5.75E+03
same,Urate (C00366) metabolite signal,[3],3.58E+04 and 2.84E+04 and 2.03E+04
same,Xanthine (C00385) metabolite signal,[3],7.82E+04 and 7.20E+04 and 8.31E+04
same,alpha-D-Glucosamine 1-phosphate (metabolite signal),[3],9.63E+05 and 8.22E+05 and 5.48E+05
same,alpha-D-Ribose 1-phosphate (C00620) metabolite signal,[3],4.34E+04 and 2.92E+04 and 1.97E+04
same,gamma-Glutamyl-gamma-aminobutyrate (metabolite signal),[3],5.87E+04 and 5.26E+04 and 3.36E+04
same,gamma-L-Glutamyl-D-alanine (metabolite signal),[3],4.70E+04 and 4.49E+04 and 2.74E+04
same,gamma-L-Glutamyl-L-cysteine (metabolite signal),[3],4.20E+04 and 3.03E+04 and 3.96E+04
